Test results taken from patent US20160115540A1, “PRODRUGS AND DRUGS” (Biogen MA Inc., priority 2013, published 2016).
Where a name gives a salt, the structure may show the parent alone.

Test system: spinal cord
Experiment: Transcriptional profiling, multi-dosing regimen, naïve mice: spinal cord
Type: in vivo
Conditions: for FC, Depp (1433836_PM_a_at) / FC, Depp (1433837_PM_at): SpinalCord, multi-dosing; for Number of differentially expressed genes identified: Spinal Cord: Table 13: Naïve, Single Dose (so in the source), 12 h after last dosing
Procedure: In vivo, DMF is rapidly metabolized to monomethyl fumarate (MMF). […] Animals were exposed to CO2 and whole blood collected via cardiac puncture. Two 100 μl aliquots of whole blood were collected in 1.5 mL microcentrifuge tubes and snap frozen in liquid nitrogen. Peripheral (liver, spleen, kidney and jejunum) and CNS brain (cerebellum, hippocampus, striatum and cortex) tissues were harvested and snap frozen in liquid nitrogen, with special care taken to collect tissues of similar size and from the same location. All samples were stored at -80° C. until RNA extraction was conducted. For RNA preparation, frozen tissues were placed in 2 mL RNAse-free 96-well blocks with 1.5 mL QIAzol Lysis Reagent (QIAgen) and a 3.2 mm stainless steel bead (BioSpec Products, Bartlesville, Okla.). Tissues were disrupted for four cycles of 45 seconds in a Mini-Beadbeater (Biospec Products). RNA was extracted in chloroform and the aqueous phase was mixed with an equal volume of 70% ethanol. Extracted RNA was applied to RNeasy 96 plates and purified by the spin method according to the manufacturer's protocol (RNeasy 96 Universal Tissue Protocol, QIAgen, Hilden Germany). […] Two micrograms of biotin labeled […] probe were hybridized to Affymetrix GeneChip Affymetrix HT_MG-430_PM plate arrays with modified conditions as described in […] et al. Washing and staining of the hybridized arrays were completed as described in the GeneChip Expression analysis technical manual for HT plate arrays using the Genechip® Array Station (Affymetrix, Santa Clara, Calif.) with modifications as described in […] et al. The processed GeneChip® plate arrays were scanned using GeneTitan scanner (Affymetrix, Santa Clara, Calif.). Affymetrix scans were subject to quality control (QC) measures. These tests included a visual inspection of the distribution of raw signal intensities and an assessment of RNA degradation, relative log expression (RLE), and normalized unsealed standard error (NUSE). All sample scans that passed these QC metrics were included in the analysis. All CEL files were subjected to GC-content-based Robust Multi-array Average (GCRMA) normalization (version 2.20.0) (Irizarry R A, et al. Nucleic Acids Res 2003; 31:e15; Li C, et al. […] Stat Appl Genet Mol Biol 2004; 3:Article3). […] Springer Science+Business Media 2005). Changes in gene expression were studied by applying a linear modeling approach to fit gene expression levels according to the defined groups of samples (e.g. DMF-, MMF-, and Vehicle-treated animals) and Bayesian posterior error analysis as implemented by Smyth (Smyth G K. Stat Appl Genet Mol Biol 2004; 3:Article3). The comparisons considered included: DMF-vs-MMF, DMF-vs-Vehicle, and MMF-vs-Vehicle. […] Very few DEGs are observed in blood and tissues derived from the central nervous system (brain, cerebellum, cortex, striatum, and spinal cord).

[1] = SPINAL CORD, 100DMF-vs-100MMF, naïve multidose

Structure (SMILES) | FC, Depp (1433836_PM_a_at) (MMF-vs-Vehicle) | FC, Depp (1433837_PM_at) (MMF-vs-Vehicle) | Number of differentially expressed genes identified: Spinal Cord (90 mpk MMF-vs-Vehicle) | FC 8430408G22Rik (1433836_PM_a_at) [1] | FC 8430408G22Rik (1433837_PM_at) [1] | FC Mtmr2 (1425459_PM_at) [1] | FC Tle4 (1430384_PM_at) [1] | FC 8430408G22Rik (1433837_PM_at) (SPINAL CORD, 100DMF-vs-Veh, naïve multidose) | FC, Depp (1433836_PM_a_at) (DMF-vs-MMF) | FC, Depp (1433837_PM_at) (DMF-vs-MMF) | FC, Depp (1433836_PM_a_at) (DMF-vs-Vehicle) | FC, Depp (1433837_PM_at) (DMF-vs-Vehicle) | Number of differentially expressed genes identified: Spinal Cord (100 mpk DMF-vs-90 mpk MMF) | Number of differentially expressed genes identified: Spinal Cord (100 mpk DMF-vs-Vehicle) | DEPP gene induction (mRNA) (spinal cord, multi-dosing regimen, naïve mice)
COC(=O)/C=C/C(=O)O [MMF, monomethyl fumarate] | −1.16 | 1.05 | 0 |  |  |  |  |  |  |  |  |  |  |  | 
COC(=O)/C=C/C(=O)OC [DMF, dimethyl fumarate] |  |  |  | 1.92 | 1.65 | 1.57 | −1.55 | 1.73 | 1.92 | 1.65 | 1.66 | 1.73 | 4 | 1 | robustly induced
